Source: publication PMC6432887 (Drug Design, Development and Therapy, 2019)

Legend:
[1] = Single-dose crossover bioavailability study, REP plasma levels by LC-MS/MS; format: in vivo, rabbits; conditions: male, albino, rabbit, po
[2] = In vitro dissolution studies; format: physicochemical; conditions: phosphate buffer pH 6.8
[3] = cited from earlier work

AUC(0-inf) [1]: 95400 ± 7220 ng·h/mL
AUC(0-t) [1]: 93400 ± 5610 ng·h/mL
Cmax [1]: 31900 ± 1620 ng/mL
Tmax [1]: 1 ± 0.143 h
half-life [1]: 1.31 ± 0.117 h
k el [1]: 0.000147 s⁻¹
percentage drug released ([2]; optimized formulae, alginate film and plain drug, within 30 minutes): 22.981%
release rate ([2]; within 10 minutes): 8.166%
release rate ([2]; within 15 minutes): 19.65%
Compound: CCOc1cc(CC(=O)N[C@@H](CC(C)C)c2ccccc2N2CCCCC2)ccc1C(=O)O [Plain REP, Repaglinide]
Biopharmaceutics Classification System (BCS) class [3]: class II
